Reference: patent EP0414533A1, “Use of iodopropargyl esters of alpha-amino acid derivatives as antimicrobial agents” (ROHM AND HAAS COMPANY, priority 1989, dated 1991)
≈ marks a conversion by molar mass, not a printed value. Where a name gives a salt, the structure may show the parent alone. Read-outs that look alike come from different tables or passages of the source.

Assays:
Aspergillus niger (ANIG) = assay: Minimum inhibitory concentration (MIC), broth two-fold serial dilution test; format: cell-based; conditions: for MIC: Aspergillus niger
[1] = test system: Aureobasidium pullulans (APUL); assay: as above; format: cell-based; conditions: for MIC: Aureobasidium pullulans
Botrytis cinerea (BOC) = assay: In-vitro plant fungicide test; format: cell-based; conditions: Botrytis cinerea, 25 ppm; Table IVa; *=Phytotoxic; read-out: % Control at 25 ppm BOC
Fusarium roseum (FUS) = assay: In-vitro plant fungicide test; format: cell-based; conditions: Table IVa, *=Phytotoxic; for inhibition of growth at 25 ppm: Fusarium sambucinum, read-out: % Control at 25 ppm FUS, 25 ppm
[2] = test system: Cochliobolus sativus (HEL); assay: In-vitro plant fungicide test; format: cell-based; conditions: Bipolaris sorokiniana, 25 ppm; Table IVa; *=Phytotoxic; read-out: % Control at 25 ppm HEL
[3] = test system: Phytophthora capsici (PHY); assay: In-vitro plant fungicide test; format: cell-based; conditions: Phytophthora capsici; 25 ppm; Table IVa; read-out: % Control at 25 ppm PHY
Piricularia oryzae (PIR) = assay: microbe, parasite or virus in culture; format: cell-based; conditions: for inhibition of growth at 25 ppm: read-out: % Control at 25 ppm PIR
Pythium ultimum (PYU) = assay: In-vitro plant fungicide test; format: cell-based; conditions: Globisporangium ultimum; 25 ppm; Table IVa; read-out: % Control at 25 ppm PYU
Rhizoctonia solani (RHI) = assay: In-vitro plant fungicide test; format: cell-based; conditions: Rhizoctonia solani; 25 ppm; Table IVa; read-out: % Control at 25 ppm RHI
Septoria nodorum (SEP) = assay: In-vitro plant fungicide test; format: cell-based; conditions: 25 ppm, Table IVa; for inhibition of growth at 25 ppm: Parastagonospora nodorum, read-out: % Control at 25 ppm SEP
[4] = test system: Xanthomonas campestris (XAN); assay: In-vitro plant fungicide test; format: cell-based; conditions: 25 ppm, Table IVa; for inhibition of growth at 25 ppm: Xanthomonas campestris, read-out: % Control at 25 ppm XAN
THREE FUNGI = assay: MIC test against three fungi in Mycophile Broth, pH 5.0, read after 8 days (Table VII); format: cell-based; conditions: for MIC: 192 h
[5] = test system: Pseudomonas fluorescens (PSFL); assay: Minimum inhibitory concentration (MIC), broth two-fold serial dilution test; conditions: for MIC: Pseudomonas fluorescens, read-out: MIC (G-) PSFL, M9G (minimal salts media with glucose); for MIC (G-) PSFL: M9G (minimal salts media with glucose)
From the text: (§1) When the test is ready to be done, each vessel in the dilution series, except the first vessel, contains an equal volume of compound free broth. The first vessel contains twice the volume of broth with the starting concentration of test compound. One half of the broth from the first vessel is transferred to the second vessel. After being mixed, one half the resulting volume is removed from the second vessel and transferred to the third vessel. The entire cycle is repeated sufficiently to give a series of concentrations amounting to 500, 250, 125, 63, 31, 16, 8, and 4 ppm (or 100, 50, 25, 12.5, 6.2, 3.1, 1.6, and 0.8), respectively.
(§2) Each vessel is then inoculated with a cell suspension of the appropriate test organism. Bacteria are grown in broth, fungi on agar slants for a time and at a temperature appropriate to the species being tested, and algae are a mixture of green algae and blue-green bacteria grown in a nutrient media. At the end of the growth period, in the case of bacteria, the broth is vortexed to disperse the cells.
(§3) The vessels are then incubated at the appropriate temperature. After the incubation, the vessels are examined for growth/no growth.

[6] = test system: Pseudomonas aerugenosa (PSAE); assay: as above; conditions: for MIC: Pseudomonas, read-out: MIC (G-) PSAE, M9G (minimal salts media with glucose)
Escherichia coli (ECOL) = assay: as above; conditions: for MIC: Escherichia coli, read-out: MIC (G-) ECOL, M9G (minimal salts media with glucose); for MIC (G-) ECOL: M9G (minimal salts media with glucose)
From the text: as §1, §2, §3

[7] = test system: Staphylococcus aureus (SAUR); assay: as above; conditions: for MIC: Staphylococcus aureus, read-out: MIC (G+) SAUR, M9G (minimal salts media with glucose); for MIC (G+) SAUR: M9G (minimal salts media with glucose)
[8] = M9G (minimal salts media with glucose), Table IIIa, read-out: MIC (F) ANIG
[9] = M9G (minimal salts media with glucose), Table IIIa, read-out: MIC (F) APUL
[10] = Aspergillus niger, serial dilutions from 50 ppm, read after 8 days of incubation, read-out: MIC ANIG
[11] = Aureobasidium pullulans, serial dilutions from 50 ppm, read after 8 days of incubation, read-out: MIC APUL
[12] = Gloeophyllum trabeum, serial dilutions from 50 ppm, read after 8 days of incubation, read-out: MIC GTRA
[13] = read-out: MIC (F) ANIG, M9G (minimal salts media with glucose), Table IIIa
[14] = read-out: MIC (F) APUL, M9G (minimal salts media with glucose), Table IIIa
[15] = Aspergillus niger, pH 5, read-out: MIC ANIG, Aspergillus niger, serial dilutions from 50 ppm, read after 8 days of incubation
[16] = Aureobasidium pullulans, pH 5, read-out: MIC APUL, Aureobasidium pullulans, serial dilutions from 50 ppm, read after 8 days of incubation
[17] = Gloeophyllum trabeum, pH 5, read-out: MIC GTRA, Gloeophyllum trabeum, serial dilutions from 50 ppm, read after 8 days of incubation
[18] = M9G (minimal salts media with glucose), Table IIIa
[19] = Table IIIc, iodopropargyl esters of peptides

| Compound | MIC (Aspergillus niger (ANIG); [8]) [µg/mL] | MIC [1, 9] [µg/mL] | inhibition of growth at 25 ppm (Botrytis cinerea (BOC)) [%] | inhibition of growth at 25 ppm (Fusarium roseum (FUS)) [%] | inhibition of growth at 25 ppm [2] [%] | inhibition of growth at 25 ppm [3] [%] | inhibition of growth at 25 ppm (Piricularia oryzae (PIR)) [%] | inhibition of growth at 25 ppm (Pythium ultimum (PYU)) [%] | inhibition of growth at 25 ppm (Rhizoctonia solani (RHI)) [%] | inhibition of growth at 25 ppm (Septoria nodorum (SEP)) [%] | inhibition of growth at 25 ppm [4] [%] | MIC (THREE FUNGI; [10]) [µg/mL] | MIC (THREE FUNGI; [11]) [µg/mL] | MIC (THREE FUNGI; [12]) [µg/mL] | MIC ([5]; Table IIIa) [µg/mL] | MIC ([6]; Table IIIa) [µg/mL] | MIC (Escherichia coli (ECOL); Table IIIa) [µg/mL] | MIC ([7]; Table IIIa) [µg/mL] | MIC (Aspergillus niger (ANIG); [13]) [µg/mL] | MIC [1, 14] [µg/mL] | also measured |
| --- | --- | --- | --- | --- | --- | --- | --- | --- | --- | --- | --- | --- | --- | --- | --- | --- | --- | --- | --- | --- | --- |
| C[C@H](NC(=O)OC(C)(C)C)C(=O)OCC#CI [Compound 2, N-t-butoxycarbonyl-L-alanine iodopropargyl ester] | 3 | 3 | 100 | 100 | 100 | 100 | 100 | 100 | 100 | 100 | 0 | 3.2 (≈ 9.06 µM) | 25 (≈ 70.8 µM) | 1.6 (≈ 4.53 µM) | 50 | > 100 | > 100 | 50 |  |  |  |
| CC(C)(C)OC(=O)N[C@@H](COCc1ccccc1)C(=O)OCC#CI [Compound 3, N-t-butoxycarbonyl-O-benzyl-L-serine iodopropargyl ester] | 3 | < 0.8 | 0 | 100 | 100 | 100 | 100 | 100 | 100 | 100 | 0 | 25 (≈ 54.4 µM) | 50 (≈ 109 µM) | 3.2 (≈ 6.97 µM) | > 100 | > 100 | > 100 | 25 |  |  |  |
| CC(C)(C)OC(=O)N[C@@H](CSCc1ccccc1)C(=O)OCC#CI [Compound 4, N-t-butoxycarbonyl-S-benzyl-L-cysteine iodopropargyl ester] | 3 | 3 |  | 95 |  | 100 | 100 | 100 | 100 | 100 | 0 | 50 (≈ 105 µM) | 50 (≈ 105 µM) | 6.2 (≈ 13 µM) | > 10 | > 100 | > 100 | 25 |  |  | % Control at 25 ppm FUS (Fusarium roseum (FUS); 25 ppm): 100% |
| C[C@@H](OCc1ccccc1)[C@H](NC(=O)OC(C)(C)C)C(=O)OCC#CI [Compound 5, N-t-butoxycarbonyl-O-benzyl-L-threonine iodopropargyl ester] | 25 | < 0.8 |  | 95 |  | 50 | 100 | 0 | 100 | 90 | 0 | > 50 | > 50 | 6.2 (≈ 13.1 µM) | > 100 | > 100 | > 100 | 63 |  |  | % Control at 25 ppm SEP (Septoria nodorum (SEP)): 75% |
| N[C@@H](COCc1ccccc1)C(=O)OCC#CI [Compound 9, O-benzyl-L-serine iodopropargyl ester trifluoroacetate] |  |  | 100 | 100 | 100 | 100 | 100 | 100 | 100 | 100 | 0 |  |  |  | 25 | 125 | 64 | 500 | < 4 | < 4 | MIC (THREE FUNGI; [15]): 25 µg/mL; MIC (THREE FUNGI; [16]): 50 µg/mL; MIC (THREE FUNGI; [17]): 12.5 µg/mL |
| N[C@@H](CSCc1ccccc1)C(=O)OCC#CI [Compound 10, S-benzyl-L-cysteine iodopropargyl ester trifluoroacetate] |  |  | 0 | 100 | 50 | 100 | 100 | 100 | 100 | 100 | 0 |  |  |  | > 100 | 100 | > 100 | > 100 | 3 | 6.3 | MIC (THREE FUNGI; [15]): 6.2 µg/mL; MIC (THREE FUNGI; [16]): 12.5 µg/mL; MIC (THREE FUNGI; [17]): 6.2 µg/mL |
| C[C@@H](OCc1ccccc1)[C@H](N)C(=O)OCC#CI [Compound 11, O-benzyl-L-threonine iodopropargyl ester trifluoroacetate] |  |  | 0 | 100 | 95 | 100 | 100 | 100 | 100 | 100 | 0 |  |  |  | > 100 | > 100 | > 100 | > 100 | 6.3 | 3 | MIC (THREE FUNGI; [15]): 25 µg/mL; MIC (THREE FUNGI; [16]): 50 µg/mL; MIC (THREE FUNGI; [17]): 12.5 µg/mL |
| C[C@H](N)C(=O)OCC#CI [Compound 22, L-alanine iodopropargyl ester] |  |  |  |  |  |  |  |  |  |  |  |  |  |  |  |  |  |  |  |  | MIC (F) ANIG (Aspergillus niger (ANIG); [18]): <0.8 PPM; MIC (F) APUL [1, 18]: <0.8 PPM; % Control at 25 ppm PIR (Piricularia oryzae (PIR); 25 ppm): 100%; % Control at 25 ppm SEP (Septoria nodorum (SEP)): 100%; % Control at 25 ppm XAN [4]: 0%; MIC ANIG (THREE FUNGI; Aspergillus niger, serial dilutions from 50 ppm, read after 8 days of incubation): 12.5 ppm; MIC APUL (THREE FUNGI; Aureobasidium pullulans, serial dilutions from 50 ppm, read after 8 days of incubation): 50 ppm; MIC (G-) PSFL ([5]; Table IIIa): 100 PPM; MIC (G-) PSAE [6, 18]: 100 PPM; MIC (G-) ECOL (Escherichia coli (ECOL); Table IIIa): 100 PPM; MIC (G+) SAUR ([7]; Table IIIa): 100 PPM |
| C[C@@H](N)C(=O)OCC#CI [Compound 24, D-alanine iodopropargyl ester trifluoroacetate] |  |  | 0 | 75 | 100 |  | 100 | 100 | 100 | 100 | 0 |  |  |  | 63 |  | 32 | 125 | < 4 | < 4 | MIC (THREE FUNGI; [15]): 12.5 µg/mL; MIC (THREE FUNGI; [16]): 25 µg/mL; MIC (THREE FUNGI; [17]): 12.5 µg/mL; MIC (G-) PSFL ([5]; Table IIIa, trifluoroacetate): 32 PPM; MIC (G-) ECOL (Escherichia coli (ECOL); Table IIIa, trifluoroacetate): 63 PPM; MIC (G+) SAUR ([7]; Table IIIa, trifluoroacetate): 63 PPM |
| C[C@H](NC(=O)CNC(=O)OC(C)(C)C)C(=O)OCC#CI [Compound 27, N-t-butoxycarbonylglycyl-L-alanine iodopropargyl ester] |  |  | 75 | 100 | 100 |  | 0 | 100 | 100 | 100 | 0 | 25 (≈ 60.9 µM) | 50 (≈ 122 µM) | 6.2 (≈ 15.1 µM) |  |  |  |  |  |  | MIC (Aspergillus niger (ANIG); M9G (minimal salts media with glucose), Table IIIc, iodopropargyl esters of peptides, read-out: MIC (F) ANIG): < 4 µg/mL; MIC ([1]; M9G (minimal salts media with glucose), Table IIIc, iodopropargyl esters of peptides, read-out: MIC (F) APUL): 8 µg/mL; MIC [5, 19]: 125 µg/mL; MIC [6, 19]: 250 µg/mL; MIC (Escherichia coli (ECOL); [19]): 250 µg/mL; MIC [7, 19]: 125 µg/mL |
